Source: PubChem BioAssay (NCI)
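Interpolation was linear, between the two tested concentrations surrounding the appropriate level; five concentrations were tested over 48 hours in 96-well plates. TGI: total growth inhibition.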 Where a SMILES comes first, the peptide text is derived from it. [ ]: non-standard residue; d: D form. The star is where a group is joined. ξ: configuration not given here. ξW = NC(Cc1c[nH]c2ccccc12)C(=O)O; X30 = O=C(O)[C@H]1CCC[C@H]1N*; ξF = NC(Cc1ccccc1)C(=O)O; Boc = CC(C)(C)OC(=O)*; ξK = NCCCCC(N)C(=O)O; ξT = CC(O)C(N)C(=O)O; OBn = c1ccc(CO*)cc1; tBu = CC(C)(C)*

Experiments:
Experiment in all cases: growth of human tumour cells (NCI), 48 h
786-0 renal = system: 786-0 renal
ACHN renal = system: ACHN renal
HCT-116 colon = system: HCT-116 colon
HCT-15 colon = system: HCT-15 colon
HL-60(TB) leukemia = system: HL-60(TB) leukemia
HOP-92 NSCLC = system: HOP-92 NSCLC
IGROV1 ovarian = system: IGROV1 ovarian
KM12 colon = system: KM12 colon
LOX IMVI melanoma = system: LOX IMVI melanoma
M14 melanoma = system: M14 melanoma
OVCAR-3 ovarian = system: OVCAR-3 ovarian
PC-3 prostate = system: PC-3 prostate
RXF 393 renal = system: RXF 393 renal
SF-295 CNS = system: SF-295 CNS
SK-MEL-2 melanoma = system: SK-MEL-2 melanoma
SK-MEL-28 melanoma = system: SK-MEL-28 melanoma
SK-MEL-5 melanoma = system: SK-MEL-5 melanoma
U251 CNS = system: U251 CNS
UACC-257 melanoma = system: UACC-257 melanoma

| Structure (SMILES) | TGI (786-0 renal) [µM] | TGI (ACHN renal) [µM] | TGI (HCT-116 colon) [µM] | TGI (HCT-15 colon) [µM] | TGI (HL-60(TB) leukemia) [µM] | TGI (HOP-92 NSCLC) [µM] | TGI (IGROV1 ovarian) [µM] | TGI (KM12 colon) [µM] | TGI (LOX IMVI melanoma) [µM] | TGI (M14 melanoma) [µM] | TGI (OVCAR-3 ovarian) [µM] | TGI (PC-3 prostate) [µM] | TGI (RXF 393 renal) [µM] | TGI (SF-295 CNS) [µM] | TGI (SK-MEL-2 melanoma) [µM] | TGI (SK-MEL-28 melanoma) [µM] | TGI (SK-MEL-5 melanoma) [µM] | TGI (U251 CNS) [µM] | TGI (UACC-257 melanoma) [µM] |
| --- | --- | --- | --- | --- | --- | --- | --- | --- | --- | --- | --- | --- | --- | --- | --- | --- | --- | --- | --- |
| CCOC(=O)NC(C(C(=O)OCC)C(=O)OCC)(C(F)(F)F)C(F)(F)F | > 100 | > 100 | > 100 | > 100 | > 100 | > 100 | > 100 | > 100 | > 100 | > 100 | > 100 | > 100 | > 100 | > 100 | > 100 | > 100 | > 100 | > 100 | > 100 |
| CCN(CC)c1nc(=O)c(C(=O)C(C)(C)C)c(C(C)(C)C)o1 | > 100 | > 100 | > 100 | > 100 | > 100 | > 100 | > 100 | > 100 | > 100 | > 100 | – | > 100 | > 100 | > 100 | > 100 | > 100 | > 100 | > 100 | > 100 |
| CC(C)N(C(=O)c1ccc(NCc2cc(O)ccc2O)cc1)C(C)C | 26.6 | 26.7 | 29.6 | 33.6 | > 100 | 24.9 | 64.8 | – | 30.4 | 35.7 | 25.1 | 52.3 | 28.3 | 46 | 57.9 | 45.9 | 37.8 | 32.6 | 31.4 |
| Cc1ccc(C(=O)c2[nH]c(Nc3ccc(Cl)cc3)c(C(=S)Nc3ccccc3)c2N)cc1 | 6.4 | 10.7 | 11 | 28.5 | > 100 | 28 | 15 | 18.8 | 14.3 | 35.8 | 56.8 | 23.3 | 17.4 | 5.27 | 31.7 | 14.5 | – | 9.02 | 43.7 |
| COC(=O)c1c2c(cc3c1CC1(C3)Cc3ccc4c(c3C1=O)CCC4)CCC2 (configuration not stated) | > 56.1 | > 31.6 | > 62.2 | > 100 | > 28.3 | > 70.6 | > 100 | > 100 | > 58.1 | 18.6 | > 31.5 | > 24.4 | 3.14 | > 28.8 | 27 | > 100 | 20.4 | > 94.3 | > 100 |
| CC(=O)O[C@H]1CC[C@@]2(C)C(=CC[C@H]3[C@@H]4C/C(=C\c5ccncc5)[C@H](OC(C)=O)[C@@]4(C)CC[C@@H]32)C1 | 23.3 | 33.6 | 24.1 | 15.6 | 16.7 | 19.7 | 27.7 | 16.3 | 13.3 | 30.2 | 23.4 | 46.8 | 9.86 | 19.5 | 33.3 | 20.6 | 18.9 | 23.1 | 33.3 |
| COc1ccc(/C(Cl)=C(\CNc2ccccn2)c2ccccc2)cc1OC | > 100 | > 100 | > 100 | > 100 | > 100 | > 100 | > 100 | > 100 | > 100 | – | – | > 100 | > 100 | > 100 | > 100 | > 100 | > 100 | > 100 | > 100 |
| COc1cc2c(cc1O)-c1c(OC)c(O)cc3c1C(C2)N(C)CC3 (configuration not stated) | > 100 | > 100 | > 100 | > 100 | > 100 | > 100 | > 100 | > 100 | > 100 | > 100 | > 100 | > 100 | > 100 | > 100 | > 100 | – | > 100 | > 100 | > 100 |
| CC(C)C(NC(=O)CNC(=O)C1CCCN1C(=O)C(NC(=O)OC(C)(C)C)C(C)C)C(=O)NCC(=O)OCc1ccccc1 (configuration not stated) (Boc-VPGVG-OBn; configuration not given here) | > 100 | > 100 | > 100 | > 100 | > 100 | > 100 | > 100 | > 100 | > 100 | > 100 | > 100 | > 100 | > 100 | > 100 | > 100 | > 100 | > 100 | > 100 | > 100 |
| Cc1cn(CCCCOC(=O)NC(CCCNC(N)=O)C(=O)O)c(=O)[nH]c1=O (configuration not stated) | > 100 | > 100 | > 100 | > 100 | > 100 | > 100 | > 100 | > 100 | > 100 | > 100 | > 100 | > 100 | > 100 | > 100 | > 100 | > 100 | – | > 100 | > 100 |
| CC1=C2c3ccccc3N(S(=O)(=O)c3ccccc3)[C@H]2[C@H](C(=O)N2C3CC4CC[C@@]3(CS2(=O)=O)C4(C)C)CC1 (some centres not stated) | > 100 | > 100 | > 100 | > 100 | 21.9 | > 100 | > 100 | > 100 | > 100 | > 100 | > 100 | > 100 | 14.7 | > 100 | – | > 100 | 91.3 | > 100 | > 100 |
| CC(OC(C)(C)C)C(NC(=O)C(CCCCNC(=O)OC(C)(C)C)NC(=O)C(Cc1c[nH]c2ccccc12)NC(=O)C(N)Cc1ccccc1)C(=O)NC(Cc1ccccc1)C(=O)N[C@@H]1CCC[C@@H]1C(=O)O (some centres not stated) (H-[ξF][ξW][ξK](Boc)[ξT](tBu)[ξF]-X30) | > 100 | > 100 | > 100 | – | 82.9 | 88.3 | > 100 | 37.2 | 60 | > 100 | > 100 | > 100 | > 100 | > 100 | 41.5 | > 100 | > 100 | 68.3 | > 100 |
| CCCCCCCCCCCCCCCCNc1ccc2c(c1)OCCOCCOCCOCCO2 | 13.8 | – | 11.3 | 13.5 | 6.16 | 5.99 | 9.41 | 4.84 | 5.42 | 13.5 | 8.75 | 6.43 | 5.58 | 7.94 | 4.44 | 18.8 | 5.22 | 10.4 | 6.91 |
| Nc1ccc(-c2nc3ccccc3s2)cc1I | > 100 | > 100 | – | > 100 | > 100 | > 54.5 | > 100 | > 100 | > 100 | > 100 | > 100 | > 100 | > 100 | > 100 | > 100 | > 100 | > 100 | > 88.5 | > 100 |
| Cc1cn(C2CC(N=[N+]=[N-])C(CO)O2)c(=O)n(CCCCO)c1=O (configuration not stated) | > 100 | > 100 | > 100 | > 100 | > 100 | > 100 | > 100 | > 100 | > 100 | > 100 | > 100 | > 100 | > 100 | > 100 | > 100 | > 100 | – | > 100 | > 100 |
| O=C(Oc1ccc(OC(Oc2ccccc2)c2ccccc2)cc1)c1ccccc1 (configuration not stated) | > 31.6 | > 31.6 | 29.2 | – | > 31.6 | – | 23.4 | > 31.6 | > 31.6 | > 31.6 | > 31.6 | > 31.6 | > 100 | 25.8 | 36.6 | 31 | > 31.6 | > 100 | > 31.6 |
| COc1cc(S(=O)(=O)Nc2ccc(-c3csc(/N=C\C=C\c4ccccc4)n3)cc2)ccc1Cl | > 100 | > 100 | > 100 | > 100 | > 100 | 75.9 | > 100 | > 100 | > 100 | > 100 | > 100 | 56.7 | 80.2 | > 100 | 72.3 | > 100 | > 100 | – | > 100 |
| COC(=O)C1=C(OC(=O)/C(=C/c2c(F)cccc2F)c2ccccc2)C(C(=O)OC)[C@@]2(O)[C@@H](C(=O)OC)[C@H](C)C[C@@H]1[C@@H]2C(=O)OC (some centres not stated) | > 100 | > 100 | > 100 | > 100 | > 100 | – | > 100 | > 100 | > 100 | > 100 | > 100 | > 100 | > 100 | > 100 | > 100 | > 100 | – | > 100 | > 100 |
| COc1ccc2[nH]cc(CN3CCC(CO)(c4ccccc4)CC3)c2c1 | 28.6 | 47.8 | 35.8 | > 100 | 48.5 | – | > 100 | 35.4 | 37 | 32.3 | > 100 | > 100 | > 100 | 39.8 | 55.3 | 33.3 | 27.1 | > 100 | 37.2 |
| CCN(CC)C(=O)N[C@@H](Cc1ccccc1)C(=O)NC | > 100 | > 100 | > 100 | > 100 | > 100 | – | > 100 | > 100 | > 100 | > 100 | > 100 | > 100 | > 100 | > 100 | > 100 | > 100 | > 100 | > 100 | – |
| Cc1ccc(N=Nc2c(C)nn(C(=O)CC(=O)Nc3ccc(Cl)cc3)c2C)cc1C | > 100 | > 100 | > 100 | – | 56 | 64.3 | > 100 | > 100 | > 100 | > 100 | > 100 | > 100 | 67.2 | > 100 | > 100 | > 100 | > 100 | > 100 | > 100 |
| O=C(/C=C/c1ccc(O)cc1)c1cc(O)cc(O)c1 | 30.6 | 20.2 | 26.3 | 16.9 | > 100 | 31.9 | 26.6 | – | 17.3 | 29.3 | 29.4 | 23.2 | 32 | 30.6 | 34.9 | 42.7 | 28.9 | 27.5 | 30.3 |
| O=C1CCCCCCCCCCC1CN(Cc1ccccc1)Cc1ccccc1 (configuration not stated) | > 100 | > 100 | 55.9 | > 100 | 76.4 | > 100 | > 100 | > 100 | 69.4 | > 100 | > 100 | > 100 | 70.2 | > 100 | – | > 100 | 32.4 | 49.6 | > 100 |
| O=C1C(Cl)C(c2cccc(Br)c2)N1c1c(O)c(Cl)cc(Br)c1Cl (configuration not stated) | > 100 | 37.6 | 27.6 | 19.3 | 53.5 | 29 | 10.7 | 39.4 | 28.5 | 27.1 | 36.1 | 75.1 | 24.3 | 31.1 | 25 | – | 27.2 | 25.3 | 43.9 |
